Assay results as given in ChEMBL document CHEMBL1201862, “PubChem BioAssay data set” (2004).
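Cultured in 96-well plates, cells were exposed to test compound for 48 hours across five concentrations. Abbreviation: GI50, concentration required for 50% inhibition of growth.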 Activity calls are given as the source filed them. Cut-off read from the data, not from the text of the source: active = GI50 up to about 1.1 µM and inactive = higher.

Key:
Assay in all cases: DTP human tumour cell line panel, 48 h
ACHN = system: ACHN
EKVX = system: EKVX
HCT-116 = system: HCT-116
HOP-62 = system: HOP-62
HOP-92 = system: HOP-92
Hs-578T = system: Hs-578T
K562 = system: K562
LOX IMVI = system: LOX IMVI
MCF7 = system: MCF7
MDA-MB-435 = system: MDA-MB-435
MDA-N = system: MDA-N
NCI-H460 = system: NCI-H460
SF-295 = system: SF-295
SK-MEL-28 = system: SK-MEL-28
SK-MEL-5 = system: SK-MEL-5
SNB-19 = system: SNB-19
SNB-75 = system: SNB-75
UACC-62 = system: UACC-62
UO-31 = system: UO-31
MOLT-4 = system: MOLT-4

| SMILES | GI50 (ACHN) | GI50 (EKVX) | GI50 (HCT-116) | GI50 (HOP-62) | GI50 (HOP-92) | GI50 (Hs-578T) | GI50 (K562) | GI50 (LOX IMVI) | GI50 (MCF7) | GI50 (MDA-MB-435) | GI50 (MDA-N) | GI50 (NCI-H460) | GI50 (SF-295) | GI50 (SK-MEL-28) | GI50 (SK-MEL-5) | GI50 (SNB-19) | GI50 (SNB-75) | GI50 (UACC-62) | GI50 (UO-31) | GI50 (MOLT-4) |
| --- | --- | --- | --- | --- | --- | --- | --- | --- | --- | --- | --- | --- | --- | --- | --- | --- | --- | --- | --- | --- |
| S=C1NCN2CCN(CC2)CNC(=S)C(=S)NCN2CCN(CC2)CNC1=S | 72.1 µM (inactive) | 40.9 µM (inactive) | 79.4 µM (inactive) | 37.9 µM (inactive) | 62.1 µM (inactive) | 54.1 µM (inactive) | 27.3 µM (inactive) | 22.3 µM (inactive) | 54.5 µM (inactive) | 39.8 µM (inactive) | 67.8 µM (inactive) | 20.7 µM (inactive) | > 100 µM (inactive) | > 100 µM (inactive) | 39.5 µM (inactive) | 41.1 µM (inactive) | > 100 µM (inactive) | 67.8 µM (inactive) | 25.6 µM (inactive) | – |
| C=C1CCC(O)C/C1=C/C=C1\CCCC2(C)C1CCC2C(C)CCCC(C)C (stereo not given) | 16 µM (inactive) | 19 µM (inactive) | 15.2 µM (inactive) | 19.5 µM (inactive) | 17.7 µM (inactive) | 17.6 µM (inactive) | 21.2 µM (inactive) | 17.9 µM (inactive) | 12.9 µM (inactive) | 16.3 µM (inactive) | 18 µM (inactive) | 20.4 µM (inactive) | 19.6 µM (inactive) | 16.6 µM (inactive) | 19.4 µM (inactive) | 19.1 µM (inactive) | 17.4 µM (inactive) | 18.8 µM (inactive) | 14.6 µM (inactive) | 20.2 µM (inactive) |
| CCO/C(Cc1ccc(Cl)cc1)=N/NC(N)=S | > 100 µM (inactive) | > 100 µM (inactive) | > 100 µM (inactive) | > 100 µM (inactive) | > 100 µM (inactive) | > 100 µM (inactive) | 83 µM (inactive) | > 100 µM (inactive) | > 100 µM (inactive) | > 100 µM (inactive) | > 100 µM (inactive) | > 100 µM (inactive) | > 100 µM (inactive) | > 100 µM (inactive) | 84.5 µM (inactive) | > 100 µM (inactive) | > 100 µM (inactive) | > 100 µM (inactive) | 72.9 µM (inactive) | > 100 µM (inactive) |
| COc1ccc(-c2nc(N)c(C#N)c3c2CCSc2ccc(C)cc2-3)cc1OC | 19.9 µM (inactive) | 17.9 µM (inactive) | 10.8 µM (inactive) | 42.8 µM (inactive) | 10.1 µM (inactive) | 8.2 µM (inactive) | 1.24 µM (inactive) | 14.8 µM (inactive) | 12.1 µM (inactive) | 4.61 µM (inactive) | 3.79 µM (inactive) | 18.5 µM (inactive) | 6.67 µM (inactive) | 39.7 µM (inactive) | 6.18 µM (inactive) | 31.3 µM (inactive) | 10.7 µM (inactive) | 10.9 µM (inactive) | 4.16 µM (inactive) | 3.49 µM (inactive) |
| Nc1nc(Cl)c(N)c(NCC2(CO)CC(Cc3ccccc3)C2)n1 (stereo not given) | 97.9 µM (inactive) | 3.2 µM (inactive) | 3.15 µM (inactive) | > 49.3 µM (inactive) | > 77.3 µM (inactive) | > 39.8 µM (inactive) | 0.218 µM (active) | 2.42 µM (inactive) | 7.87 µM (inactive) | 16.6 µM (inactive) | 33.3 µM (inactive) | > 55.5 µM (inactive) | > 100 µM (inactive) | > 100 µM (inactive) | 0.0766 µM (active) | > 66.4 µM (inactive) | > 85.3 µM (inactive) | > 76.9 µM (inactive) | > 100 µM (inactive) | 16.3 µM (inactive) |
| O[C@@H]1C=C[C@]23CCN(Cc4cc5c(cc42)OCO5)[C@@H]3C1 | 35.2 µM (inactive) | 87.1 µM (inactive) | 42.8 µM (inactive) | 92 µM (inactive) | 65.6 µM (inactive) | > 100 µM (inactive) | > 100 µM (inactive) | 48.4 µM (inactive) | 52.1 µM (inactive) | 57 µM (inactive) | 69.3 µM (inactive) | 42.7 µM (inactive) | 40 µM (inactive) | > 100 µM (inactive) | > 100 µM (inactive) | 43.1 µM (inactive) | 20.5 µM (inactive) | > 100 µM (inactive) | 48.2 µM (inactive) | 61.1 µM (inactive) |
| C[N+](C)(C)CC1CCCCCCCCCCC1=O (stereo not given) | > 100 µM (inactive) | > 100 µM (inactive) | > 100 µM (inactive) | 39.4 µM (inactive) | > 100 µM (inactive) | > 100 µM (inactive) | > 100 µM (inactive) | > 100 µM (inactive) | > 100 µM (inactive) | > 100 µM (inactive) | > 100 µM (inactive) | > 100 µM (inactive) | > 100 µM (inactive) | > 100 µM (inactive) | > 100 µM (inactive) | > 100 µM (inactive) | > 100 µM (inactive) | > 100 µM (inactive) | > 100 µM (inactive) | > 100 µM (inactive) |
| Cc1ccc(-n2cc(-c3ccc(Cl)cc3)c(C#N)c2N)cc1 | 18.7 µM (inactive) | 15.2 µM (inactive) | 14 µM (inactive) | 17.9 µM (inactive) | 17 µM (inactive) | 2.38 µM (inactive) | 16.6 µM (inactive) | 15 µM (inactive) | 14.6 µM (inactive) | 17.3 µM (inactive) | 18.5 µM (inactive) | 15.1 µM (inactive) | 17.5 µM (inactive) | 18.1 µM (inactive) | 16.1 µM (inactive) | 17.3 µM (inactive) | 20.3 µM (inactive) | 15.1 µM (inactive) | 13.2 µM (inactive) | – |
| CCOC(=O)CCC(NC(=O)N1CCN(c2c(C)nc(C)nc2O)CC1)C(=O)OCC (stereo not given) | > 100 µM (inactive) | > 100 µM (inactive) | > 100 µM (inactive) | > 100 µM (inactive) | > 100 µM (inactive) | > 100 µM (inactive) | > 100 µM (inactive) | > 100 µM (inactive) | > 100 µM (inactive) | > 100 µM (inactive) | > 100 µM (inactive) | > 100 µM (inactive) | > 100 µM (inactive) | > 100 µM (inactive) | – | > 100 µM (inactive) | < 0.01 µM (active) | > 100 µM (inactive) | > 100 µM (inactive) | > 100 µM (inactive) |
| CC(=O)OC[C@@]1(C)[C@@H]2[C@@H]3[C@@]4(CO[C@]3(C)C(=O)[C@@]3(OC(C)=O)C[C@H](C)[C@H](OC(C)=O)[C@@H]3[C@H]4OC(C)=O)[C@H](OC(=O)c3ccccc3)C[C@@H]21 | > 100 µM (inactive) | 63.2 µM (inactive) | 67.9 µM (inactive) | > 100 µM (inactive) | > 100 µM (inactive) | > 100 µM (inactive) | 24 µM (inactive) | 79.6 µM (inactive) | 81.8 µM (inactive) | > 100 µM (inactive) | > 100 µM (inactive) | 59 µM (inactive) | 93.3 µM (inactive) | > 100 µM (inactive) | > 100 µM (inactive) | > 100 µM (inactive) | > 100 µM (inactive) | > 100 µM (inactive) | 99.8 µM (inactive) | – |
| O=C1/C(=C/c2ccc(O)cc2)CCCC1CN1CCCCC1 (stereo not given) | 1.73 µM (inactive) | 3.25 µM (inactive) | 1.79 µM (inactive) | 15.7 µM (inactive) | 1.78 µM (inactive) | 3.71 µM (inactive) | 1.42 µM (inactive) | 1.56 µM (inactive) | 1.69 µM (inactive) | 7.28 µM (inactive) | 3.47 µM (inactive) | 14.3 µM (inactive) | 16.1 µM (inactive) | 5.43 µM (inactive) | 6.01 µM (inactive) | 17.6 µM (inactive) | 8.63 µM (inactive) | 1.83 µM (inactive) | 2.51 µM (inactive) | 2.2 µM (inactive) |
| COc1cc2c(cc1OCc1ccccc1)NC(=O)[C@@H]1C[C@@H](O)CN1C2=O | > 100 µM (inactive) | > 100 µM (inactive) | > 100 µM (inactive) | 47.6 µM (inactive) | > 100 µM (inactive) | > 100 µM (inactive) | > 100 µM (inactive) | > 100 µM (inactive) | > 100 µM (inactive) | > 100 µM (inactive) | > 100 µM (inactive) | > 100 µM (inactive) | > 100 µM (inactive) | > 100 µM (inactive) | > 100 µM (inactive) | > 100 µM (inactive) | 35.6 µM (inactive) | > 100 µM (inactive) | > 100 µM (inactive) | > 100 µM (inactive) |
| CC1(C)C(/C=N\O)=[N+]([O-])C(C)(C)N1O | > 100 µM (inactive) | > 100 µM (inactive) | > 100 µM (inactive) | > 100 µM (inactive) | > 100 µM (inactive) | > 100 µM (inactive) | > 100 µM (inactive) | > 100 µM (inactive) | > 100 µM (inactive) | 25.2 µM (inactive) | 52.7 µM (inactive) | > 100 µM (inactive) | > 100 µM (inactive) | > 100 µM (inactive) | > 100 µM (inactive) | > 100 µM (inactive) | > 100 µM (inactive) | > 100 µM (inactive) | > 100 µM (inactive) | – |
| COc1cc(NCCC2CCCCN2)c2ncccc2c1 (stereo not given) | > 100 µM (inactive) | > 100 µM (inactive) | 36 µM (inactive) | > 96.4 µM (inactive) | 60.8 µM (inactive) | > 96.4 µM (inactive) | > 44.2 µM (inactive) | 52.2 µM (inactive) | 0.31 µM (active) | 26.4 µM (inactive) | 36.3 µM (inactive) | 39.7 µM (inactive) | 67.1 µM (inactive) | 29.2 µM (inactive) | 25.1 µM (inactive) | > 100 µM (inactive) | 60.3 µM (inactive) | 24.8 µM (inactive) | 57.1 µM (inactive) | 7.11 µM (inactive) |
